Here are results for nine compounds from ChEMBL document CHEMBL6182925 (J Med Chem, 2025).

Each structure is given as a SMILES string. Converted amounts (≈) assume the structure as drawn. A value given as a limit tells only on which side of the number the result lay.

Data set [1] in a line: Kinetic solubility of compound at pH 4.5. To be noted: buffer, read-out: Kinetic_solubility. The data set is classed as physicochemical.
Data set [2] in a line: Kinetic solubility of compound at pH 2. The data set is classed as physicochemical. The conditions noted are these: buffer, read-out: Kinetic_solubility.
In data set [3] the test system is BaF3. Description: cells. To be noted: Mus musculus, BaF3, 72 h.
Data set [4] deals with BaF3. Description: cells. The conditions noted are these: Mus musculus, BaF3, 72 h. This is another data set of the same source.
Data set [5] deals with BaF3. Description: cells. To be noted: Mus musculus, BaF3, 72 h. This is another data set of the same source.
For data set [6], the system named is BaF3. Description: cells. The conditions noted are these: Mus musculus, BaF3, 72 h. This is another data set of the same source.
Data set [7] relates to BaF3. Description: cells. The conditions noted are these: Mus musculus, BaF3, 72 h. This is another data set of the same source.
The subject of data set [8] is BaF3. Description: cells. To be noted: Mus musculus, BaF3, 72 h. This is another data set of the same source.
Data set [9] has as its system BaF3. Description: cells. To be noted: Mus musculus, BaF3, 72 h. This is another data set of the same source.
For data set [10], the system named is BaF3. Description: cells. The conditions noted are these: Mus musculus, BaF3, 72 h. The source holds these as a separate data set.
A further data set is described as follows: cells. To be noted: Mus musculus, BaF3/TRP-Met, 72 h.
In data set [11] the test system is BaF3. Description: cells. To be noted: Mus musculus, BaF3, 72 h. The source holds these as a separate data set.
The subject of data set [12] is BaF3. Description: cells. The conditions noted are these: Mus musculus, BaF3, 72 h. The source holds these as a separate data set.
Data set [13] relates to BaF3. Description: cells. To be noted: Mus musculus, BaF3, 72 h. This is another data set of the same source.
Data set [14] deals with BaF3. Description: cells. To be noted: Mus musculus, BaF3, 72 h. This is another data set of the same source.
Data set [15] concerns BaF3. Description: cells. To be noted: Mus musculus, BaF3, 72 h. This is another data set of the same source.
The test system of data set [16] is BaF3. Description: cells. The conditions noted are these: Mus musculus, BaF3, 72 h. The source holds these as a separate data set.
The target of data set [17] is Vascular endothelial growth factor receptor 2 (Homo sapiens, UniProt P35968). Description: Inhibition of KDR (unknown origin) by fluorescence-based microfluidic mobility shift assay.
Data set [18] deals with Hepatocyte growth factor receptor (Homo sapiens, UniProt P08581, D1228N). Description: Inhibition of N-terminal GST-tagged recombinant human c-MET D1228N mutant (956 to end residues) extracted from baculovirus infected Sf9 cells using 5-FAM-KKKKEEIYFFF-CONH2 as substrate preincubated for 30 mins followed by ATP addition measured after 60 mins by fluorescence-based microfluidic mobility shift assay.

In data set [19] the target is Hepatocyte growth factor receptor (Homo sapiens, UniProt P08581). Description: Inhibition of N-terminal GST-tagged wild-type human c-MET (956 to 1390 residues) extracted from baculovirus infected Sf21 cells using 5-FAM-KKKKEEIYFFF-CONH2 as substrate preincubated for 30 mins followed by ATP addition measured after 60 mins by fluorescence-based microfluidic mobility shift assay.

A further data set addresses Cytochrome P450 3A4 (Homo sapiens, UniProt P08684). Description: Inhibition of CYP3A4 (unknown origin). The data set is classed as ADME.

Sequence of Cytochrome P450 3A4 (P08684 whole entry): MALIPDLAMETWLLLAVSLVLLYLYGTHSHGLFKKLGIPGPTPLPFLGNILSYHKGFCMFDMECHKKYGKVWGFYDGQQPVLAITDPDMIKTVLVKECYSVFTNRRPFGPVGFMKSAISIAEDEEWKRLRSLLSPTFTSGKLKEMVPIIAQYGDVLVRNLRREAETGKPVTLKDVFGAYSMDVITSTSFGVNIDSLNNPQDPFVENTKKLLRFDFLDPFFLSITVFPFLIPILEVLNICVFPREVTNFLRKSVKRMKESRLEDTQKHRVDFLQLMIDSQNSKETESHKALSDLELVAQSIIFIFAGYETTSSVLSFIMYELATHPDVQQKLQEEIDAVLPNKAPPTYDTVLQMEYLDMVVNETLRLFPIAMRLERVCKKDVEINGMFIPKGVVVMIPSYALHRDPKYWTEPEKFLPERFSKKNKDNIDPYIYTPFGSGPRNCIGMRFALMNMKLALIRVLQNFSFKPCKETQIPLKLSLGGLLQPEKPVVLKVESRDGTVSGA
Sequence of Vascular endothelial growth factor receptor 2 (P35968 whole entry): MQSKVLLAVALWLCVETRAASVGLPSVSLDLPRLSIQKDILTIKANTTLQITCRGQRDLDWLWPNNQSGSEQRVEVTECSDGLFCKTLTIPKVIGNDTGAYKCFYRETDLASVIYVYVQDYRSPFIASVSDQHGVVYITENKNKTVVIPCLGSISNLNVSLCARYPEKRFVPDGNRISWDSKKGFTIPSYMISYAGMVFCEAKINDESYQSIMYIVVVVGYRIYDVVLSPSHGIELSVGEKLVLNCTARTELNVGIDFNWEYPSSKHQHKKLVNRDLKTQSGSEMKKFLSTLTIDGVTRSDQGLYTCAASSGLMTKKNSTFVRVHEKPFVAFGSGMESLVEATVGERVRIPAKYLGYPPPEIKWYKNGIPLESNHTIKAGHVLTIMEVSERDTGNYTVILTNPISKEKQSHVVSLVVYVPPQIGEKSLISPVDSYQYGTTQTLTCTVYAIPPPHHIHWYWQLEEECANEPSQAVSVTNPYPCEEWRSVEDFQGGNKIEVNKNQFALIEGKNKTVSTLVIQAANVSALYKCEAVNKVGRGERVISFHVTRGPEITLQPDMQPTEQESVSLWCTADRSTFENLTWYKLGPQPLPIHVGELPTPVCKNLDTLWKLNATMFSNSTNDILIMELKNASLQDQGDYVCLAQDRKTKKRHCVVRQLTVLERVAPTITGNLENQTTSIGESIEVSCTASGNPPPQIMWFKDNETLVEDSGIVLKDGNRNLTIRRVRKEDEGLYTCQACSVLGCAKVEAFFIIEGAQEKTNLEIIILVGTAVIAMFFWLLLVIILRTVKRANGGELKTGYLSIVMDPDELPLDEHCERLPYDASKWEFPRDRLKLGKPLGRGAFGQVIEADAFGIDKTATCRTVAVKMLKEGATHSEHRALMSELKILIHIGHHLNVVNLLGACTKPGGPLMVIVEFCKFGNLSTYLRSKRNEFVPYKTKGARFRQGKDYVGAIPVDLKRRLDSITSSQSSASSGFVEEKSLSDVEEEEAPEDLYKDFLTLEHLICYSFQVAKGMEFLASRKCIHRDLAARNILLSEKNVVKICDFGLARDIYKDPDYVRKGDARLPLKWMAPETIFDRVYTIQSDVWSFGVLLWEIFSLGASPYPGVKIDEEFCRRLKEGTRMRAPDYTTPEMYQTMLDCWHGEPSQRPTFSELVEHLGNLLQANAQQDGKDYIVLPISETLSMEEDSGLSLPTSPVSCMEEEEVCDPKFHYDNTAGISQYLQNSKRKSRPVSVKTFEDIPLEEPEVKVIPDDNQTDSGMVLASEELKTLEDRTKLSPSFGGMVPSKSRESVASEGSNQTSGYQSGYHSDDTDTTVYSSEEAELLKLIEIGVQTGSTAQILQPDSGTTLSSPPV
Sequence of Hepatocyte growth factor receptor (Homo sapiens, UniProt P08581) (P08581 whole entry, the tested form may be a part): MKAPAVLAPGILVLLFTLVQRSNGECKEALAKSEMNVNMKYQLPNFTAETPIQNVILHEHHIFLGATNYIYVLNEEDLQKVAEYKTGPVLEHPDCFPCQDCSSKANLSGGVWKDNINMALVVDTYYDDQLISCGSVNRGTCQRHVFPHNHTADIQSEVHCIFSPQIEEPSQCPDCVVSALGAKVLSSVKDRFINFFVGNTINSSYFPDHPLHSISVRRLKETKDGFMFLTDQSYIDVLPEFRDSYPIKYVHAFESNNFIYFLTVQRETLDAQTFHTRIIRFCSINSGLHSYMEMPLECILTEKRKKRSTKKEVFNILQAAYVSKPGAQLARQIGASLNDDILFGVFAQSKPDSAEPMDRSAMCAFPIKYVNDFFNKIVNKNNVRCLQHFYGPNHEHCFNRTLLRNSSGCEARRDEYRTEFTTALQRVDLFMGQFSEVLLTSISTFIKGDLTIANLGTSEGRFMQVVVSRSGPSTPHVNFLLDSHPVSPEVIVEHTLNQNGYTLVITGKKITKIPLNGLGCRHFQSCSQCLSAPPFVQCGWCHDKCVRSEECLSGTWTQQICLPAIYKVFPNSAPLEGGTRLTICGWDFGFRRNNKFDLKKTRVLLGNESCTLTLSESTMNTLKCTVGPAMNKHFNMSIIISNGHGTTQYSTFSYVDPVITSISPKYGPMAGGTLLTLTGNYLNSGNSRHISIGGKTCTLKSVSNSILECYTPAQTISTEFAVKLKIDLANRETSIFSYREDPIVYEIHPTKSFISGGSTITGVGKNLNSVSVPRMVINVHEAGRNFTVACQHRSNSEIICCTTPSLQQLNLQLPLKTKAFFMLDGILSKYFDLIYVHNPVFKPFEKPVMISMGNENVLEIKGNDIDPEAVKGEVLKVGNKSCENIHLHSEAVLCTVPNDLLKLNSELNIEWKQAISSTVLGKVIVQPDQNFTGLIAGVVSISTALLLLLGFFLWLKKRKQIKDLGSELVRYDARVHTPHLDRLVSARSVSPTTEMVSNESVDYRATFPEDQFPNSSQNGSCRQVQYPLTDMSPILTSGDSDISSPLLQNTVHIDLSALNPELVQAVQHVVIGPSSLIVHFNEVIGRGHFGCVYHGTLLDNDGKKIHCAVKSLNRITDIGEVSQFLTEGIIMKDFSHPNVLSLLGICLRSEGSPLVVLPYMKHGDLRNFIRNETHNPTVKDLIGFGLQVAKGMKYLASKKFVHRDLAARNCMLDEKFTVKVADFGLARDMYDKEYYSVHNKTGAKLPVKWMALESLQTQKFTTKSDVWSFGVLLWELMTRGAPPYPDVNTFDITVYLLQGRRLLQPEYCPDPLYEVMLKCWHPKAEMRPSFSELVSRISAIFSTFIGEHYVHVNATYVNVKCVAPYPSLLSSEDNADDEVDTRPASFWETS
Sequence of Hepatocyte growth factor receptor (Homo sapiens, UniProt P08581, D1228N) (P08581 25-1390 D1228N limits assumed): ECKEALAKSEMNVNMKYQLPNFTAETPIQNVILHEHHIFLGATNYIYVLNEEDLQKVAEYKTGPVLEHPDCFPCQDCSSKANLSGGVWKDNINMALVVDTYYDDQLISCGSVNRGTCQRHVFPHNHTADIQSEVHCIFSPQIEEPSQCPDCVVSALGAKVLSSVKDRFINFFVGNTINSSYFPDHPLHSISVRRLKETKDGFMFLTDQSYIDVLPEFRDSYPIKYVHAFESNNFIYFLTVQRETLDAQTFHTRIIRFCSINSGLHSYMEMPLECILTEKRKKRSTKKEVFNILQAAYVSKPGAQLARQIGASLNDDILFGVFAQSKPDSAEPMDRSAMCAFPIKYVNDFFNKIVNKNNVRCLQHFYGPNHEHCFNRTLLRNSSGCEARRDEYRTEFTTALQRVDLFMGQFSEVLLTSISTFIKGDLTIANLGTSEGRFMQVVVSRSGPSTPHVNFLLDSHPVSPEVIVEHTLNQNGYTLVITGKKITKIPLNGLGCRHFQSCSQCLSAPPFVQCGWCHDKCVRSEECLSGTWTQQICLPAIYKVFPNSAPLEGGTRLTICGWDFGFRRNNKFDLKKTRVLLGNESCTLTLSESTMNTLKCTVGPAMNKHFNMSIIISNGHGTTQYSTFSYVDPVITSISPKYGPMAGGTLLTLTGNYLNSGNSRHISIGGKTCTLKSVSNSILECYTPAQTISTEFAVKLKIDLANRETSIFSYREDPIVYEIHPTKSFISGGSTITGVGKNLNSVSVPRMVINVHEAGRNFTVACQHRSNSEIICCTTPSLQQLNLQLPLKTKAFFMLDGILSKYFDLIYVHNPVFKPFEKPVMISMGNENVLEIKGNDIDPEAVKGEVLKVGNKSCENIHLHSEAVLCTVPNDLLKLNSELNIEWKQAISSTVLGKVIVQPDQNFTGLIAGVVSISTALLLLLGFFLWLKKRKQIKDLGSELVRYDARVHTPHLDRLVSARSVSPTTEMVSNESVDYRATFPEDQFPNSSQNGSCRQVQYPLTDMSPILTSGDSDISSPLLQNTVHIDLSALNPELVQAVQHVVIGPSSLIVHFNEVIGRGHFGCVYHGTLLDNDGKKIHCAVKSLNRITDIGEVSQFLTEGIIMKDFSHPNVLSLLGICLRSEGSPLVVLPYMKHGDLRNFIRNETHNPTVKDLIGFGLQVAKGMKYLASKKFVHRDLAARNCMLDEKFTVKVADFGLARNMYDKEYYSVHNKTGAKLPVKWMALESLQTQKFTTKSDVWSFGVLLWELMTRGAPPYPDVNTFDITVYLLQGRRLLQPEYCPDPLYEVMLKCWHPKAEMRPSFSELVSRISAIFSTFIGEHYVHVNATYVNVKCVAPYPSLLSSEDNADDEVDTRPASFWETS

Turning to `COc1cc2nccc(Oc3ccc(NC(=O)C4(C(=O)Nc5ccc(F)cc5)CC4)cc3)c2cc1OC` [CABOZANTINIB], the solubility kinetic worked out at 5.2 µM (≈ 2.61 µg/mL) in [1] and 21 µM (≈ 10.5 µg/mL) in data set [2].
Take `CN1CCC(COc2cnc(-c3cccc(Cn4nc(-c5cccc(C#N)c5)ccc4=O)c3)nc2)CC1` [TEPOTINIB]: the EC50 in the data set on BaF3 [3] is 1910 nM; with BaF3 [4], 123 nM; in the data set with BaF3 [5] it was 24 nM; in the data set on BaF3 [6], 2.3 nM; in the data set on BaF3 [7], 2210 nM; in the data set on BaF3 [8], 4.2 nM. The 50% effective concentration (EC50) was found to be 122 nM in the data set on BaF3 [9]; 1820 nM in the data set with BaF3 [10]; 6.4 nM in the data set “cells”; 0.6 nM with BaF3 [11]; 3410 nM with BaF3 [12]; 2810 nM in the data set with BaF3 [13]. Also, the results for the concentration for a half-maximal effect (EC50) in the data set with BaF3 [14], in the data set with BaF3 [15] and in the data set on BaF3 [16] were 183 nM, 3440 nM and 3040 nM, respectively. Also, the solubility kinetic in [1] came to 48 µM (≈ 23.6 µg/mL); in [2], 295 µM (≈ 145 µg/mL).
Take `COCCNCc1ccc(-c2cc3nccc(Oc4ccc(NC(=S)NC(=O)Cc5ccc(F)cc5)cc4F)c3s2)nc1` [GLESATINIB]: the results for the solubility kinetic in [1] and in data set [2] were 0.12 µM (≈ 0.0744 µg/mL) and 4 µM (≈ 2.48 µg/mL), respectively. Moreover, in [17], the concentration for half-maximal inhibition (IC50) amounted to 0.5 nM.
On to `COc1cc2nccc(Oc3c(F)cc(NC(=O)c4cnccc4OC4CC4)cc3F)c2cc1OC`, for which the EC50 in the data set with BaF3 [3] turned out to be 26 nM; in “cells”, 43 nM. Further, the solubility kinetic in data set [1] is 4.4 µM (≈ 2.17 µg/mL); in data set [2] it was 288 µM (≈ 142 µg/mL).
As to `COc1cc2nccc(Oc3ccc(NC(=O)c4ccccc4OC)cc3F)c2cc1OC`, the 50% inhibitory concentration (IC50) in data set [18] is 2.2 nM; in data set [19] it was 4.4 nM; in [17], 250 nM. The EC50 came to 795 nM in the data set on BaF3 [3] and 1320 nM in “cells”. Moreover, the results for the solubility kinetic in data set [1] and in data set [2] were 1 µM (≈ 0.448 µg/mL) and 6.1 µM (≈ 2.74 µg/mL), respectively.
As to `COc1cc2nccc(Oc3ccc(NC(=O)c4cnccc4OC)cc3F)c2cc1OC`, the 50% effective concentration (EC50) was 174 nM in the data set on BaF3 [3] and 382 nM in “cells”. For the same compound, the figures for the solubility kinetic in data set [1] and in data set [2] were 24 µM (≈ 10.8 µg/mL) and 252 µM (≈ 113 µg/mL), respectively. For the same compound, at Cytochrome P450 3A4, the half-maximal inhibitory concentration (IC50) was over 50000 nM.
Consider `COc1cc2nccc(Oc3c(F)cc(NC(=O)c4cnccc4OC)cc3F)c2cc1OC`, for which the figures for the half-maximal effective concentration (EC50) in the data set with BaF3 [3] and in the data set “cells” were 56 nM and 123 nM, respectively. The solubility kinetic amounted to 5.4 µM (≈ 2.52 µg/mL) in data set [1] and 205 µM (≈ 95.8 µg/mL) in data set [2].
In turn, `COc1cc2nccc(Oc3ccc(NC(=O)c4ccncc4OC)cc3F)c2cc1OC` gave an IC50 against Cytochrome P450 3A4 of 300 nM.
Consider `C[C@@H](c1ccc2nccn2c1)n1nnc2ncc(-c3cnn(C)c3)nc21` [SAVOLITINIB], for which the 50% effective concentration (EC50) with BaF3 [4] is 73 nM; in the data set on BaF3 [5], 8.4 nM; in the data set on BaF3 [6], 0.5 nM; in the data set with BaF3 [7] it was over 10000 nM; in the data set with BaF3 [8], 1.5 nM; with BaF3 [9], 74 nM. The EC50 with BaF3 [10] was 7400 nM; in the data set with BaF3 [11], 0.5 nM; with BaF3 [12] it was over 10000 nM; in the data set with BaF3 [13], over 10000 nM; in the data set on BaF3 [14], 13 nM; with BaF3 [15], over 10000 nM. Besides, in the data set with BaF3 [16], the EC50 was over 10000 nM.
